Reference: patent US11535643B2, “Macrolides with modified desosamine sugars and uses thereof” (President and Fellows of Harvard College, priority 2015, dated 2022)
Values after ≈ are worked out from the molar mass of the structure shown. Read-outs that look alike come from different tables or passages of the source.

Assays:
Type in all cases: cell-based
S. aureus = test: Broth dilution MIC determination (CLSI) against S. aureus strains; settings: Staphylococcus aureus
How it was run: (§1)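 Macrolide MICs come from CLSI-standard broth dilution testing of distinct strains, several multidrug-resistant, selected with attention to macrolide resistance mechanisms; two reference macrolides, azithromycin and solithromycin, were included.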

S. pneumoniae = test: Broth dilution MIC determination (CLSI) against S. pneumoniae strains; settings: Streptococcus pneumoniae
How it was run: as §1

S. pyogenes = test: Broth dilution MIC determination (CLSI) against S. pyogenes strains; settings: Streptococcus pyogenes
How it was run: as §1

E. faecalis = test: Broth dilution MIC determination (CLSI) against E. faecalis strains; settings: Enterococcus faecalis
How it was run: as §1

E. coli = test: Broth dilution MIC determination (CLSI) against E. coli strains; settings: Escherichia coli
How it was run: as §1

A. baumannii = test: Broth dilution MIC determination (CLSI) against A. baumannii strains; settings: Acinetobacter baumannii
How it was run: as §1

K. pneumoniae = test: Broth dilution MIC determination (CLSI) against K. pneumoniae strains; settings: Klebsiella pneumoniae
How it was run: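 Azithromycin and solithromycin served as controls; MICs were obtained by standard CLSI broth dilution on a strain panel including multidrug-resistant and macrolide-resistant isolates.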

P. aeruginosa = test: Broth dilution MIC determination (CLSI) against P. aeruginosa strains
How it was run: as §1

H. influenzae = test: Broth dilution MIC determination (CLSI) against H. influenzae strains; settings: Haemophilus influenzae
From the text: Minimum inhibitory concentrations (MICs) for macrolides described herein have been determined for unique strains of S. aureus, S. pneumoniae, S. pyogenes, E. faecalis, E. coli, A. baumannii, K. pneumoniae, P. aeruginosa, and H. influenzae, including several multidrug-resistant strains, with a special focus on macrolide resistant mechanisms. Azithromycin and solithromycin were included as control compounds. CLSI standard procedures for broth dilution MIC determination were used. Data for exemplary compounds described herein is shown in Tables M1-M7 and in Tables N1-N4.

[1] = ATCC29213, ATCC29213, read-out: MIC S. aureus ATCC29213
[2] = MRSA / USA100, MRSA: USA100, read-out: MIC S. aureus MRSA: USA100
[3] = MRSA / USA300, MRSA: USA300, read-out: MIC S. aureus MRSA: USA300
[4] = USA600, USA600, GISA, read-out: MIC S. aureus USA600, GISA
[5] = read-out: MIC S. aureus erm A genotype
[6] = ATCC49619, ATCC49619, read-out: MIC S. pneumoniae ATCC49619
[7] = erm B + mef A genotype, read-out: MIC S. pneumoniae erm B + mef A genotype
[8] = erm B + tet(M, O) genotype, read-out: MIC S. pneumoniae erm B + tet(M, O) genotype
[9] = read-out: MIC S. pneumoniae mef A genotype, mef A genotype
[10] = read-out: MIC S. pneumoniae mef A genotype, mef A genotype, first of two such columns (c3)
[11] = ATCC19615, ATCC19615, read-out: MIC S. pyogenes ATCC19615
[12] = macrolide-resistant, read-out: MIC S. pyogenes macrolide-resistant
[13] = ATCC29212, ATCC29212, read-out: MIC E. faecalis ATCC29212
[14] = Vancomycin-resistant, read-out: MIC E. faecalis Vancomycin-resistant
[15] = ATCC25922, ATCC25922, read-out: MIC E. coli ATCC25922
[16] = read-out: MIC E. coli NDM-1, NDM-1
[17] = ATCC19606, ATCC19606, read-out: MIC A. baumannii ATCC19606
[18] = imipenem-resistant, read-out: MIC A. baumannii imipenem-resistant
[19] = ATCC10031, ATCC10031, read-out: MIC K. pneumoniae ATCC10031
[20] = KPC-2, read-out: MIC K. pneumoniae KPC-2
[21] = Pseudomonas aeruginosa, ATCC27853; read-out: MIC P. aeruginosa ATCC27853
[22] = ATCC49247, ATCC49247, read-out: MIC H. influenzae ATCC49247
[23] = erythro > 4, azithro 1, read-out: MIC H. influenzae erythro > 4, azithro 1

`CC[C@H]1OC(=O)[C@H](C)C(=O)[C@H](C)[C@@H](O[C@@H]2OC(CN(C)C)CC(N(C)C)C2O)[C@](C)(OC)C[C@@H](C)CN(C)[C@H](C)[C@H]2N(CCCCn3cc(-c4cccc(N)c4)nn3)C(=O)O[C@]12C` (stereo partly shown) [FSM-22003] was tested, and the MIC (S. aureus; [1]) was 8 µg/mL (≈ 9.04 µM), the MIC (S. aureus; [2]) was > 32 µg/mL and the MIC (S. aureus; [3]) was > 32 µg/mL. For the same compound, the MIC (S. aureus; [4]) was > 32 µg/mL, the MIC (S. aureus; [5]) was > 32 µg/mL and the MIC (S. pneumoniae; [6]) was ≤ 0.0312 µg/mL. For the same compound, the MIC (S. pneumoniae; [7]) was 32 µg/mL, the MIC (S. pneumoniae; [8]) was ≤ 0.0312 µg/mL and the MIC (S. pneumoniae; [9]) was 0.5 µg/mL (≈ 0.565 µM). For the same compound, the MIC (S. pneumoniae; [10]) was 0.0625 µg/mL (≈ 0.0706 µM), the MIC (S. pyogenes; [11]) was ≤ 0.0312 µg/mL and the MIC (S. pyogenes; [12]) was 2 µg/mL (≈ 2.26 µM). For the same compound, the MIC (E. faecalis; [13]) was 4 µg/mL (≈ 4.52 µM), the MIC (E. faecalis; [14]) was > 32 µg/mL and the MIC (E. coli; [15]) was > 32 µg/mL. For the same compound, the MIC (E. coli; read-out: MIC E. coli CTX-M-14, CTX-M-14) was > 32 µg/mL, the MIC (E. coli; [16]) was > 32 µg/mL and the MIC (E. coli; read-out: MIC E. coli TEM-1, TEM-1) was 32 µg/mL (≈ 36.2 µM). The MIC (A. baumannii; [17]) was > 32 µg/mL, the MIC (A. baumannii; IMP-4, read-out: MIC A. baumannii IMP-4) was > 32 µg/mL and the MIC (A. baumannii; chromosomal class C, read-out: MIC A. baumannii chromosomal class C) was > 32 µg/mL. For the same compound, the MIC (A. baumannii; [18]) was > 32 µg/mL, the MIC (K. pneumoniae; [19]) was 8 µg/mL (≈ 9.04 µM) and the MIC (K. pneumoniae; [20]) was > 32 µg/mL. For the same compound, the MIC (K. pneumoniae; SHV-12, read-out: MIC K. pneumoniae SHV-12) was > 32 µg/mL, the MIC (K. pneumoniae; TEM-10, read-out: MIC K. pneumoniae TEM-10) was > 32 µg/mL and the MIC (P. aeruginosa; [21]) was > 32 µg/mL. The MIC (P. aeruginosa; Pseudomonas aeruginosa; read-out: MIC P. aeruginosa HPA101-1477) was > 32 µg/mL, the MIC (H. influenzae; [22]) was 8 µg/mL (≈ 9.04 µM) and the MIC (H. influenzae; [23]) was 4 µg/mL (≈ 4.52 µM).
In the case of `CC[C@H]1OC(=O)[C@H](C)C(=O)[C@H](C)[C@@H](O[C@@H]2OC(CNC=N)CC(N(C)C)C2O)[C@](C)(OC)C[C@@H](C)CN[C@H](C)[C@H]2N(CCCCn3cc(-c4cccc(N)c4)nn3)C(=O)O[C@]12C` (stereo partly shown) [FSM-21861], the MIC (S. aureus; ATCC29213, read-out: MIC S. aureus ATCC29213) is reported as > 32 µg/mL, the MIC (S. aureus; MRSA / USA100, read-out: MIC S. aureus MRSA: USA100) is reported as > 32 µg/mL and the MIC (S. aureus; MRSA / USA300, read-out: MIC S. aureus MRSA: USA300) is reported as > 32 µg/mL. The MIC (S. aureus; USA600, read-out: MIC S. aureus USA600, GISA) was > 32 µg/mL, the MIC (S. aureus; [5]) was > 32 µg/mL and the MIC (S. pneumoniae; [6]) was 0.5 µg/mL (≈ 0.575 µM). The MIC (S. pneumoniae; read-out: MIC S. pneumoniae erm B + mef A genotype, erm B + mef A genotype) was 32 µg/mL, the MIC (S. pneumoniae; read-out: MIC S. pneumoniae erm B + tet(M, O) genotype, erm B + tet(M, O) genotype) was 0.25 µg/mL and the MIC (S. pneumoniae; [9]) was 8 µg/mL (≈ 9.19 µM). For the same compound, the MIC (S. pneumoniae; [10]) was 4 µg/mL (≈ 4.6 µM), the MIC (S. pyogenes; ATCC19615, read-out: MIC S. pyogenes ATCC19615) was 0.5 µg/mL (≈ 0.575 µM) and the MIC (S. pyogenes; read-out: MIC S. pyogenes macrolide-resistant) was 8 µg/mL (≈ 9.19 µM). The MIC (E. faecalis; ATCC29212, read-out: MIC E. faecalis ATCC29212) was 4 µg/mL (≈ 4.6 µM), the MIC (E. faecalis; read-out: MIC E. faecalis Vancomycin-resistant) was > 32 µg/mL and the MIC (E. coli; [15]) was > 32 µg/mL. For the same compound, the MIC (E. coli; [16]) was > 32 µg/mL, the MIC (A. baumannii; ATCC19606, read-out: MIC A. baumannii ATCC19606) was > 32 µg/mL and the MIC (A. baumannii; read-out: MIC A. baumannii imipenem-resistant) was > 32 µg/mL. For the same compound, the MIC (K. pneumoniae; ATCC10031, read-out: MIC K. pneumoniae ATCC10031) was 16 µg/mL (≈ 18.4 µM), the MIC (K. pneumoniae; read-out: MIC K. pneumoniae KPC-2) was > 32 µg/mL and the MIC (P. aeruginosa; Pseudomonas aeruginosa, ATCC27853, read-out: MIC P. aeruginosa ATCC27853) was > 32 µg/mL. It also gave an MIC (H. influenzae; ATCC49247, read-out: MIC H. influenzae ATCC49247) of 32 µg/mL (≈ 36.8 µM) and an MIC (H. influenzae; read-out: MIC H. influenzae erythro > 4, azithro 1) of 32 µg/mL (≈ 36.8 µM).
`CC[C@H]1OC(=O)[C@H](C)C(=O)[C@H](C)[C@@H](O[C@@H]2OC(CN(CCN)CCN)CC(N(C)C)C2O)[C@](C)(OC)C[C@@H](C)CN[C@H](C)[C@H]2N(CCCCn3cc(-c4cccc(N)c4)nn3)C(=O)O[C@]12C` (stereo partly shown) [FSM-21877] was tested, and the MIC (S. aureus; [1]) was > 32 µg/mL, the MIC (S. aureus; [2]) was > 32 µg/mL and the MIC (S. aureus; [3]) was > 32 µg/mL. The MIC (S. aureus; [4]) was > 32 µg/mL, the MIC (S. aureus; [5]) was > 32 µg/mL and the MIC (S. pneumoniae; [6]) was 1 µg/mL (≈ 1.08 µM). For the same compound, the MIC (S. pneumoniae; [7]) was 32 µg/mL, the MIC (S. pneumoniae; [8]) was 0.5 µg/mL and the MIC (S. pneumoniae; [9]) was 16 µg/mL (≈ 17.2 µM). It also gave an MIC (S. pneumoniae; [10]) of 8 µg/mL (≈ 8.61 µM), an MIC (S. pyogenes; [11]) of 0.5 µg/mL (≈ 0.538 µM) and an MIC (S. pyogenes; [12]) of 16 µg/mL (≈ 17.2 µM). The MIC (E. faecalis; [13]) was 8 µg/mL (≈ 8.61 µM), the MIC (E. faecalis; [14]) was > 32 µg/mL and the MIC (E. coli; [15]) was > 32 µg/mL. The MIC (E. coli; [16]) was 32 µg/mL (≈ 34.4 µM), the MIC (A. baumannii; [17]) was > 32 µg/mL and the MIC (A. baumannii; [18]) was > 32 µg/mL. The MIC (K. pneumoniae; [19]) was 16 µg/mL (≈ 17.2 µM), the MIC (K. pneumoniae; [20]) was 32 µg/mL (≈ 34.4 µM) and the MIC (P. aeruginosa; [21]) was > 32 µg/mL. It also gave an MIC (H. influenzae; [22]) of 32 µg/mL (≈ 34.4 µM) and an MIC (H. influenzae; [23]) of 32 µg/mL (≈ 34.4 µM).
